Source: PubChem BioAssay AID248 (DTP/NCI, 2004)
Inconclusive results and toxic doses are left out. Cut-off read from the data, not from the text of the source: active = T/C of 150% or more; inactive = T/C below 125%.

System: L1210 leukemia ip in BDF1 mice, survival T/C
Assay: NCI In Vivo Anticancer Drug Screen. Data for tumor model L1210 Leukemia (intraperitoneal) in B6D2F1 (BDF1) mice
Settings: endpoint: mean survival time, higher = longer survival
Procedure, shortened: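 Ratio derived from survival: compound-dosed mice over vehicle-dosed mice, all bearing a transplantable tumor.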

[1] = dose: 100.0 mg/kg/injection, schedule: Q01DX001 (ip), vehicle: carboxymethylcellulose (CMC)
[2] = dose: 100.0 mg/kg/injection, schedule: Q04DX003 (ip), vehicle: Klucel (hydroxypropylcellulose) (HPC)
[3] = dose: 200.0 mg/kg/injection, schedule: Q01DX001 (ip), vehicle: carboxymethylcellulose (CMC)
[4] = dose: 400.0 mg/kg/injection, schedule: Q01DX001 (ip), vehicle: carboxymethylcellulose (CMC)
[5] = dose: 100.0 mg/kg/injection, schedule: Q01DX001 (ip), vehicle: saline
[6] = dose: 200.0 mg/kg/injection, schedule: Q01DX001 (ip), vehicle: saline
[7] = dose: 400.0 mg/kg/injection, schedule: Q01DX001 (ip), vehicle: saline
[8] = dose: 100.0 mg/kg/injection, schedule: Q01DX009 (ip), vehicle: Klucel (hydroxypropylcellulose) (HPC)
[9] = dose: 200.0 mg/kg/injection, schedule: Q01DX009 (ip), vehicle: Klucel (hydroxypropylcellulose) (HPC)
[10] = dose: 400.0 mg/kg/injection, schedule: Q01DX009 (ip), vehicle: Klucel (hydroxypropylcellulose) (HPC)
[11] = dose: 100.0 mg/kg/injection, schedule: Q04DX002 (ip), vehicle: Klucel (hydroxypropylcellulose) (HPC)
[12] = dose: 200.0 mg/kg/injection, schedule: Q04DX002 (ip), vehicle: Klucel (hydroxypropylcellulose) (HPC)
[13] = dose: 400.0 mg/kg/injection, schedule: Q04DX002 (ip), vehicle: Klucel (hydroxypropylcellulose) (HPC)
[14] = dose: 50.0 mg/kg/injection, schedule: Q01DX009 (ip), vehicle: saline with Tween-80
[15] = dose: 100.0 mg/kg/injection, schedule: Q01DX009 (ip), vehicle: saline with Tween-80
[16] = dose: 200.0 mg/kg/injection, schedule: Q01DX009 (ip), vehicle: saline with Tween-80
[17] = dose: 100.0 mg/kg/injection, schedule: Q04DX003 (ip), vehicle: saline
[18] = dose: 200.0 mg/kg/injection, schedule: Q04DX003 (ip), vehicle: saline
[19] = dose: 400.0 mg/kg/injection, schedule: Q04DX003 (ip), vehicle: saline
[20] = dose: 100.0 mg/kg/injection, schedule: Q01DX009 (ip), vehicle: saline
[21] = dose: 200.0 mg/kg/injection, schedule: Q01DX009 (ip), vehicle: saline
[22] = dose: 400.0 mg/kg/injection, schedule: Q01DX009 (ip), vehicle: saline

Measured: T/C

c1cc[c]([Ge]([c]2ccccc2)([c]2ccccc2)[c]2cc[c]([Ge]([c]3ccccc3)([c]3ccccc3)[c]3ccccc3)cc2)cc1
inactive: dose: 100.0 mg/kg/injection, schedule: Q04DX002 (ip), vehicle: saline with Tween-80 97 % of control | dose: 200.0 mg/kg/injection, schedule: Q04DX002 (ip), vehicle: saline with Tween-80 87 % of control | dose: 400.0 mg/kg/injection, schedule: Q04DX002 (ip), vehicle: saline with Tween-80 91 % of control

O=S(=O)(F)c1ccccc1S(=O)(=O)Cl
inactive: dose: 25.0 mg/kg/injection, schedule: Q04DX003 (ip), vehicle: Klucel (hydroxypropylcellulose) (HPC) 97 % of control | dose: 50.0 mg/kg/injection, schedule: Q04DX003 (ip), vehicle: Klucel (hydroxypropylcellulose) (HPC) 92 % of control | [1] 95 % of control | [2] 92 % of control

O=C1c2cc(Br)ccc2-c2cc(Br)c(NC(=O)C(F)(F)F)c(Br)c21
inactive: [1] 92 % of control | [3] 108 % of control | [4] 99 % of control

CNNC(=O)Cc1ccccc1
inactive: dose: 100.0 mg/kg/injection, schedule: Q01DX001 (ip), vehicle: other 92 % of control | dose: 200.0 mg/kg/injection, schedule: Q01DX001 (ip), vehicle: other 108 % of control | dose: 400.0 mg/kg/injection, schedule: Q01DX001 (ip), vehicle: other 108 % of control

Br/C=C(\Br)CBr
inactive: dose: 75.0 mg/kg/injection, schedule: Q01DX001 (sc), vehicle: olive oil, sesame oil, peanut oil 105 % of control | dose: 150.0 mg/kg/injection, schedule: Q01DX001 (sc), vehicle: olive oil, sesame oil, peanut oil 108 % of control

O=[N+]([O-])c1ccc(Cl)cc1/C=N/NC(=S)Nc1cccc2cccnc12
inactive: [5] 100 % of control | [6] 103 % of control | [7] 100 % of control

Cc1cc(C)c(CC(C)(CO)CO)c(C)c1CC(C)(CO)CO
inactive: [8] 107 % of control | [9] 98 % of control | [10] 96 % of control

CC(=O)NNC(N)=S
inactive: [11] 87 % of control | [12] 87 % of control | [13] 97 % of control

CCOC(=O)C(CC(=O)c1ccccc1)C(C)=O (stereo unspecified)
inactive: [14] 97 % of control | [15] 93 % of control | [16] 97 % of control

Cc1ccc(S(=O)(=O)c2ccccc2)cc1
inactive: [17] 103 % of control | [18] 91 % of control | [19] 95 % of control

COc1cc(N(CCCl)CCCl)c(OC)cc1C=Nc1cccc(C(F)(F)F)c1
inactive: [1] 120 % of control | [3] 115 % of control | [4] 98 % of control

COc1ccc(COC(=O)Nc2ccccc2)cc1
inactive: dose: 75.0 mg/kg/injection, schedule: Q01DX001 (ip), vehicle: carboxymethylcellulose (CMC) 101 % of control | dose: 150.0 mg/kg/injection, schedule: Q01DX001 (ip), vehicle: carboxymethylcellulose (CMC) 98 % of control

CCSC1=C(SCC)C(=O)C(SCC)=C(SCC)C1=O
inactive: dose: 3.1 mg/kg/injection, schedule: Q01DX009 (ip), vehicle: saline with Tween-80 110 % of control | dose: 6.25 mg/kg/injection, schedule: Q01DX009 (ip), vehicle: saline with Tween-80 105 % of control | dose: 12.5 mg/kg/injection, schedule: Q01DX009 (ip), vehicle: saline with Tween-80 105 % of control | dose: 25.0 mg/kg/injection, schedule: Q01DX009 (ip), vehicle: saline with Tween-80 91 % of control | [14] 103 % of control

O=C(CC(Br)C(=O)c1ccccc1)c1ccccc1 (stereo unspecified)
inactive: [15] 97 % of control | [16] 97 % of control | dose: 400.0 mg/kg/injection, schedule: Q01DX009 (ip), vehicle: saline with Tween-80 94 % of control

CS(=O)(=O)OCCN1C(=O)NC(c2ccccc2)(c2ccccc2)C1=O
inactive: [5] 94 % of control | [20] 97 % of control | [17] 107 % of control | [6] 94 % of control | [21] 96 % of control | [18] 93 % of control | [7] 100 % of control | [22] 97 % of control | [19] 101 % of control

CC(CCCO)C1CCC2C3CCC4CC5(CCC4(C)C3CCC12C)OCCO5 (stereo unspecified)
inactive: dose: 100.0 mg/kg/injection, schedule: Q01DX009 (sc), vehicle: steriod suspending solution 104 % of control | dose: 200.0 mg/kg/injection, schedule: Q01DX009 (sc), vehicle: steriod suspending solution 92 % of control | dose: 400.0 mg/kg/injection, schedule: Q01DX009 (sc), vehicle: steriod suspending solution 94 % of control

Cc1ccc(-c2cc(-c3ccccc3)n(-c3ccccc3)n2)cc1
inactive: dose: 100.0 mg/kg/injection, schedule: Q01DX009 (ip), vehicle: other 103 % of control | dose: 200.0 mg/kg/injection, schedule: Q01DX009 (ip), vehicle: other 96 % of control | dose: 400.0 mg/kg/injection, schedule: Q01DX009 (ip), vehicle: other 95 % of control

BrC1CCC2C(CCC(Br)C23OCCO3)C12OCCO2 (stereo unspecified)
inactive: [20] 91 % of control | [17] 89 % of control | [21] 98 % of control | [22] 91 % of control | [19] 108 % of control

CCOC(=O)C(=O)c1c[nH]c2ccccc12
inactive: dose: 100.0 mg/kg/injection, schedule: Q04DX003 (ip), vehicle: saline with Tween-80 97 % of control | dose: 200.0 mg/kg/injection, schedule: Q04DX003 (ip), vehicle: saline with Tween-80 97 % of control | dose: 400.0 mg/kg/injection, schedule: Q04DX003 (ip), vehicle: saline with Tween-80 95 % of control

O=C(COc1ccc(Cl)c(Cl)c1)Nc1ccc[n+](Cc2ccc(Cl)c(Cl)c2)c1
inactive: [2] 90 % of control | dose: 200.0 mg/kg/injection, schedule: Q04DX003 (ip), vehicle: Klucel (hydroxypropylcellulose) (HPC) 97 % of control | dose: 400.0 mg/kg/injection, schedule: Q04DX003 (ip), vehicle: Klucel (hydroxypropylcellulose) (HPC) 104 % of control

c1ccc2c(c1)NC(c1cccc3ccccc13)S2 (stereo unspecified)
inactive: [5] 94 % of control | [6] 100 % of control | [7] 94 % of control

Cc1ccc(C2CCCCC2OS(=O)(=O)c2ccc(C)cc2)cc1 (stereo unspecified)
inactive: dose: 100.0 mg/kg/injection, schedule: Q01DX001 (ip), vehicle: steriod suspending solution 102 % of control | dose: 200.0 mg/kg/injection, schedule: Q01DX001 (ip), vehicle: steriod suspending solution 95 % of control | dose: 400.0 mg/kg/injection, schedule: Q01DX001 (ip), vehicle: steriod suspending solution 109 % of control

O=C(Nc1ccc(NC(=O)c2ccccc2)c2c1C(=O)c1ccccc1C2=O)c1ccccc1
inactive: [8] 96 % of control | [11] 100 % of control | [9] 96 % of control | [12] 93 % of control | [10] 107 % of control | [13] 103 % of control
